Assays:
[1] = test system: CD8^+ 2C cells; assay: Dose-response of day 3 proliferation of CD8+ 2C cells to peptides on transfected Drosophila APC; type: cell-based, mouse; settings: for proliferative response: 1 nM peptide
Description: Responses to p2Ca (above) and QL9 (below) were measured by culturing 5×10^4 purified CD8^+ 2C cells with 2×10^5 Drosophila cells in the presence or absence of the indicated concentrations of peptides for 3 days. [^3H] TdR was added during the last 8 hours of culture; rIL-2 was added at a final concentration of 20 units/ml. The data are the mean of triplicate cultures. When supplemented with exogenous IL-2, however, both peptides stimulated significant proliferative responses at high doses (10 μM). The proliferative responses elicited by QL9 were far stronger than for p2Ca (note the large difference between the scales of x-axes of the upper and the lower panel).
Dose-response relationships for proliferation on day 3 elicited by Drosophila cells transfected with L^d.B7.1CAM and presenting p2Ca peptide were compared to those elicited by Drosophila cells transfected with L^d.B7, L^d.ICAM or L^d.B7.1CAM presenting QL9 peptide. Drosophila APC (2×10^5 cells) were cultured with 5×10^4 CD8^+ 2C cells for three days in the presence or absence of peptides. [^3H] TdR was added during the last 8 hours of culture; no IL-2 was added to the cultures.

[2] = test system: CD8^+ 2C cells; assay: CD69 and CD25 expression on CD8+ 2C cells stimulated with transfected Drosophila cells plus peptide; type: cell-based, mouse; settings: Drosophila cells expressing L^d alone; peptide 10 μM, 12 hours
Description: TCR stimulation elicited a complex pattern of intracellular events which lead to early up-regulation of CD69 and CD25 (IL-2 receptor or IL-2R) on the cell surface. These changes are apparent within a few hours of stimulation and are followed by cytokine synthesis and cell proliferation. Drosophila cells were transfected with genes for L^d, L^d and B7.1 (L^d.B7), L^d and ICAM-1 (L^d.ICAM) or L^d, B7.1 and ICAM-1 (L^d.B7.1CAM). […] Purified CD8^+ 2C cells were incubated with various Drosophila cells plus a peptide (either p2Ca or QL9, 10 μM) in bulk (2 ml) culture for 12 hours and then stained for CD69 or CD25. Either p2Ca or QL9 presented by Drosophila cells transfected with L^d.B7, L^d.ICAM or L^d.B7.1CAM were effective in stimulating the up-regulation of CD69 and CD25.

Substance: Gln-Leu-Ser-Pro-Phe-Pro-Phe-Asp-Leu [QL9]
- proliferative response ([1]; L^d.B7 and L^d.ICAM APC): < 100 cpm
- proliferative response ([1]; L^d.B7.1CAM APC): > 10,000 cpm
- effect of high peptide dose on day 3 proliferative response ([1]; 10 μM peptide, L^d.B7.1CAM APC): inhibited
- proliferation of 2C CD8+ cells ([1]; Drosophila cells with L^d alone, no exogenous lymphokines): failed
- lowest peptide dose with clearly apparent day 3 proliferative response ([1]; L^d.B7.1CAM APC, no IL-2): ≤ 10 pM
- peptide concentration giving maximal day 3 proliferative response ([1]; L^d.B7.1CAM APC, no IL-2): 100 nM
- induction of CD69 and CD25 expression [2]: low, but significant

Source: patent US20030138946A1
